This is an account of results in patent publication US20220257632A1, “MICROLUMENAL TARGETING OF CANCER CELLS” (Fred Hutchinson Cancer Research Center, priority 2019, published 2022).

Experiment [1] relates to MMTV-PyMT clusters. Put plainly: Sulfo-NHS-biotin permeability of MMTV-PyMT clusters. The settings on record: treatment 1 hr prior to biotin. The experiment is classed as cell-based, mouse. As to the method: (§1) FIG. 4C is a quantification of epigen immunogold signal; n=268 gold particles. To determine if microlumenal junctions were permeable, clusters were incubated with cell-impermeable sulfo-NHS-biotin. 1 mM EGTA was used as a positive control to disrupt cell-cell junctions. Biotin leak was quantified by measuring streptavidin-FITC fluorescence signal within clusters. n=3 biological replicates. n=75 clusters per condition. P-values=Mann-Whitney tests (FIG. 4D) Immunofluorescence of epigen in clusters with and without 1 mM EGTA treatment to disrupt cell-cell junctions was measured. […] P-value=Mann-Whitney test.
The accumulation of epigen within microlumina implied a mechanism for preventing ligand diffusion and signal reduction. To characterize the permeability of tumor cell clusters, a technique used to differentially label apical and basal proteins was adapted. Clusters were treated with a cell impermeable biotin (sulfo-NHS-biotin, 0.4 KDa) which labels membrane surface proteins but is excluded from the cytosol. At baseline, biotin was excluded from cell-cell junction membranes within MMTV-PyMT clusters and predominantly labeled the cell-matrix junction membranes (FIG. 4D).
To test the permeability of tumor cell clusters, NHS-biotin was added to a final concentration of 0.8 mM in PBS for 30 minutes at 37° C. […]
(§2) Phalloidin staining and DAPI were used to define membrane and nuclear areas, respectively. Using the freehand line tool in FIJI software, lines along cell-matrix (outer membrane), cell-cell (intercellular) membranes, and intracellular (cytosolic) areas were drawn and median fluorescence intensity was measured for each channel. […] Then the polygon selection tool was used to measure FITC-streptavidin intensity in the cluster core (excluding the cell-matrix contacts) and intensity was normalized to the area measured. To assess biotin permeability in tumor vs. stroma areas, mean FITC-streptavidin signal was measured in FIJI in equally sized squares in adjacent pure tumor or pure stroma areas. […]

Experiment [2] concerns MMTV-PyMT clusters. In words: Epigen immunofluorescence in MMTV-PyMT clusters after junction disruption. The experiment is classed as cell-based, mouse. As to the method:
as §1, with “test. […]” for “test.”
as §2

The test system of another experiment is tumor cell clusters. Put plainly: Cluster outgrowth on treatment with recombinant epigen. The format is cell-based.

For the molecule `C/C1=C/C(=O)O[C@@H]2C[C@@H](CC[C@H](C)/C=C\C=C\CC1)O[C@@](O)([C@@H]1CSC(=O)N1)C2` [Latrunculin A], the “biotin leak into clusters” value in the experiment on MMTV-PyMT clusters [1] is recorded as “allowed biotin to leak between clustered cells”.

As to `O=C(O)CN(CCOCCOCCN(CC(=O)O)CC(=O)O)CC(=O)O` [calcium chelation, ethylene glycol-bis(β-aminoethyl ether)-N,N,N′,N′-tetraacetic acid], the “epigen signal in clusters (immunofluorescence)” value with MMTV-PyMT clusters [2] is recorded as “marked loss of epigen signal”. Further, the “biotin leak into clusters” value in the experiment on MMTV-PyMT clusters [1] was “biotin was able to leak into intercellular spaces”.

As to `C[C@@H]1Cc2c(Cl)cc(C(=O)N[C@@H](Cc3ccccc3)C(=O)O)c(O)c2C(=O)O1` [ochratoxin A], the “biotin leak into clusters” value in the experiment on MMTV-PyMT clusters [1] is reported as “allowed biotin to leak between clustered cells”.

B1: recombinant epigen: Recombinant epigen (R&D 1127-EP), growth factor and EGFR ligand (protein, UniProt Q6UW88 23-154, looked up)
Epigen: AAVTVTPPITAQQGNWTVNKTEADNIEGPIALKFSHLCLEDHNSYCINGACAFHHELEKAICRCFTGYTGERCEHLTLTSYAVDSYEKYIAIGIGVGLLLSGFLVIFYCYIRKRCLKLKSPYNVCSGERRPL
B1: the outgrowth entry with tumor cell clusters is reported as “induced outgrowth in a dose-dependent manner”.
